In test [1] the target is bacterially expressed AMPK heterotrimers (γ subunit CBS sites). The note with it: cited from earlier work.
Test [2] deals with T1, unphosphorylated human α2β2γ1 complex (WT) (Homo sapiens, UniProt P54619+P54646).
T1 construct: made in house; host or cells: Escherichia coli
As to the kind of experiment: AMPK activation and Thr172 phosphorylation by the LKB1:STRADα:MO25α complex, WT. The format is biochemical. The note with it: 300 µM nucleotide, 200 µM Mg.ATP2−. As for the experimental part: (§1) The relative roles of the three CBS sites in the other two mechanisms of activation of AMPK by AMP or ADP, i.e. promotion of Thr172 phosphorylation by LKB1, and protection against Thr172 dephosphorylation by protein phosphatases, have not been examined previously. As expected, incubation of the α2β2γ1 AMPK complex with a fixed, limiting amount of purified LKB1:STRADα:MO25α complex in the presence of 200 µM Mg.ATP^2− caused a large degree of activation (Figure 5A) and phosphorylation (Figure 5B) of AMPK (unphosphorylated α2β2γ1 complex), which were stimulated more than 2-fold by 300 µM AMP and 1.6-fold by 300 µM ADP.
Figure 5. Effects of AMP or ADP on AMPK activation and Thr172 phosphorylation by the LKB1:STRADα:MO25α complex. Unphosphorylated human α2β2γ1 complexes (WT, or with L129D/V130D, V276G/L277G or I312G mutations affecting CBS1, CBS3 or CBS4 respectively) were incubated with ATP and a fixed concentration of the LKB1:STRADα:MO25α complex in the presence or absence of AMP or ADP (both 300 µM), as described in the Materials and methods section. After the incubation aliquots were withdrawn for (A) AMPK assay or (B) Western blots. […] For (B), due to a limit on the number of lanes that could be run on one gel, single replicates from the triplicate assays were analysed. […]

Test [3] concerns the target T2, human α2β2γ1 complex, CBS4 mutant (I312G) (Homo sapiens, UniProt P54619+P54646, I312G).
T2 construct: made in house; host or cells: Escherichia coli
The experiment in a line: AMPK inactivation and Thr172 dephosphorylation by PPM1A, CBS4 mutant. The format is biochemical. The note with it: 300 µM nucleotide, absence of ATP. The procedure:
as §1
Figure 6. Effects of AMP or ADP on AMPK inactivation and Thr172 dephosphorylation by PP2Cα (PPM1A). Human α2β2γ1 complexes (WT, or with L129D/V130D, V276G/L277G or I312G mutations affecting CBS1, CBS3 or CBS4 respectively), all phosphorylated on Thr172, were incubated with a fixed concentration of PP2Cα (PPM1A) in the presence or absence of AMP or ADP (both 300 µM) as described in the Materials and methods section. After the incubation, aliquots were withdrawn for (A) AMPK assay or (B) Western blots. […] For (B), due to a limit on the number of lanes that could be run on one gel, single replicates from the triplicate assays were analysed. […]

[4] abbreviates: in the presence of Mg2+ and staurosporine, read-out: estimated Kd at the CBS3 site.

Where two headings read alike, the source gives them in different places.

T2 sequence (P54619 whole entry I312G): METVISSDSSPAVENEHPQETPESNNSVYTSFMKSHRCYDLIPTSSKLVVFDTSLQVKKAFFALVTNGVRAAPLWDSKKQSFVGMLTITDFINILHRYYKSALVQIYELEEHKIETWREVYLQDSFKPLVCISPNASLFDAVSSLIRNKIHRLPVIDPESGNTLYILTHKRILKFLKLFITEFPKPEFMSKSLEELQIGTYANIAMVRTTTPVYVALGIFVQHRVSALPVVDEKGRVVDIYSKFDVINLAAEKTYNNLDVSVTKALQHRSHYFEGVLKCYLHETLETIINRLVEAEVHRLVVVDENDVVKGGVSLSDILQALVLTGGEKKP
T2 sequence (P54646 whole entry): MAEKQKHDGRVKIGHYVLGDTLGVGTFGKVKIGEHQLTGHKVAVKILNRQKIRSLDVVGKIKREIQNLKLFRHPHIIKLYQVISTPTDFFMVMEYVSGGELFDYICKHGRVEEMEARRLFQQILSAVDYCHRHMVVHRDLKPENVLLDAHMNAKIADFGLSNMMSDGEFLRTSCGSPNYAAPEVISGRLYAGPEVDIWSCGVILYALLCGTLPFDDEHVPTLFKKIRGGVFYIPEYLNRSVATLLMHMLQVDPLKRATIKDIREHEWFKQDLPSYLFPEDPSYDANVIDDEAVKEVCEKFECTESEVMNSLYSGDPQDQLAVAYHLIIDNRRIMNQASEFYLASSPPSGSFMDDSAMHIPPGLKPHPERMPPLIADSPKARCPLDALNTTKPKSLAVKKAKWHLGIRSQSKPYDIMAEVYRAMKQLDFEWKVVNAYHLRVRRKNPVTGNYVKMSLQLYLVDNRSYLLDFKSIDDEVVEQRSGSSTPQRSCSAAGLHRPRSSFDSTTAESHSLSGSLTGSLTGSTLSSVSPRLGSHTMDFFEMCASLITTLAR
T2 sequence (O43741 whole entry partner): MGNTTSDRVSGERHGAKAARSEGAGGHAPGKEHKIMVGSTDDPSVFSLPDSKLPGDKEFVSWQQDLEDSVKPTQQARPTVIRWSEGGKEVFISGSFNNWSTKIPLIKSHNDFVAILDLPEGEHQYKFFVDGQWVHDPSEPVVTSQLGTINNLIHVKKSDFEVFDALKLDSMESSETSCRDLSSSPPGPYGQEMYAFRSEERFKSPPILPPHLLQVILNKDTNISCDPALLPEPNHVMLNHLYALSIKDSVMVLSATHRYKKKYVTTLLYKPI
T1 sequence (P54619 whole entry): as the sequence (P54619 whole entry I312G) above, with G312I counted along it
T1 sequence (P54646 whole entry): as the sequence (P54646 whole entry) above
T1 sequence (O43741 whole entry partner): as the sequence (O43741 whole entry partner) above

Regarding `Nc1ncnc2c1ncn2[C@@H]1O[C@H](COP(=O)(O)OP(=O)(O)O)[C@@H](O)[C@H]1O` [ADP], the dissociation constant (Kd) in test [1] (setting [4]) was 12 to 24 µM. Besides, the “stimulation of activation and phosphorylation of AMPK by LKB1:STRADα:MO25α complex” value in test [2] stood at 1.6 fold. For the same compound, in test [3], the “protective effect of nucleotide against PPM1A in the mutant” value is given as “almost completely abolished”.

For the compound `Nc1ncnc2c1ncn2[C@@H]1O[C@H](COP(=O)(O)O)[C@@H](O)[C@H]1O` [AMP], the Kd in test [1] (setting [4]) is 1 to 2 µM; in test [1] (various bacterially expressed heterotrimers, read-out: Kd, AMP-binding site of high affinity), 2 to 4 µM; in test [1] (various bacterially expressed heterotrimers, read-out: Kd, AMP-binding site of low affinity), 40 to 400 µM. The “stimulation of activation and phosphorylation of AMPK by LKB1:STRADα:MO25α complex” value in test [2] is “more than 2 fold”. Moreover, in test [3], the “protective effect of nucleotide against PPM1A in the mutant” value was “almost completely abolished”.

As a reminder, the Kd is the constant that tells how readily two partners part at equilibrium.

The values above are taken from publication PMC11088877, “AMP-activated protein kinase can be allosterically activated by ADP but AMP remains the key activating ligand” (Biochemical Journal, 2024).
